This test has as its target T1, human full-length recombinant PKC βII (Homo sapiens, UniProt P05771).
T1 construct: Active human full-length recombinant PKC βII; purchased Invitrogen GmbH, Darmstadt, Germany
The test is described as follows: Determination of PKC βII inhibition (Caliper mobility-shift kinase assay, Fluorescein-RFARKGSLRQKNV peptide substrate). It is filed as biochemical. As to conditions: example compounds at a final concentration of 1.14 μM (±0.15 μM). The method, boiled down:
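Full-length PKC βII (30 ng/ml in pre-dilution) with PS/DAG/Ca2+ activators, pH 7.4; fluorescein peptide and ATP at 3 μM and 120 μM before mixing. Reaction ran 60 min at 32 °C, was EDTA-stopped, and was read by mobility shift. % inhibition came from product/(substrate+product) peak heights, tested at 1.14 μM final.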
T1 sequence (P05771 1-673 isoform P05771-2): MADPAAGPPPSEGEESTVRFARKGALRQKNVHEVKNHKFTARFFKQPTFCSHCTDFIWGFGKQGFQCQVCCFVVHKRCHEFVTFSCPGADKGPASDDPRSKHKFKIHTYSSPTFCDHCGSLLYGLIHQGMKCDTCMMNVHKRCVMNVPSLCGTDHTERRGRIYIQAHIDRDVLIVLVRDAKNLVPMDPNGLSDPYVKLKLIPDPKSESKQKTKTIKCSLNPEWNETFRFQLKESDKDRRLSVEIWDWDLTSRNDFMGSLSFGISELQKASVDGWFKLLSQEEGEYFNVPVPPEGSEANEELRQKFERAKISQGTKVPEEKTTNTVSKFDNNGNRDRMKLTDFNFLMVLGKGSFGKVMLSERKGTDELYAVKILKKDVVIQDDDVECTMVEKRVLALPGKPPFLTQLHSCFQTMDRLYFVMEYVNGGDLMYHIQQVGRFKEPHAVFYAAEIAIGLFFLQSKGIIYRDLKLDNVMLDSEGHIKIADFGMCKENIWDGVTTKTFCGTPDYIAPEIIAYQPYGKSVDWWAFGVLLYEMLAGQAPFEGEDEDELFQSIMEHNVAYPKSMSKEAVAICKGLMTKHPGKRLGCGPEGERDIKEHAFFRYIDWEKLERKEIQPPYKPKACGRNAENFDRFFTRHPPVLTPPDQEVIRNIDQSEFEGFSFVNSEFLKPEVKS
In general, inhibition refers to the drop in the measured response relative to a control, in per cent. Turning to `Cc1n[nH]c2nc(-c3ccc(O)cc3)cc(C(=O)N3CCNCC3c3cccs3)c12` (stereo not shown) [Example 31, [6-(4-Hydroxy-phenyl)-3-methyl-1H-pyrazolo[3,4-b]pyridin-4-yl]-(2-thiophen-2-yl-piperazin-1-yl)-methanone], the inhibition at 1.14 µM was found to be 99%.

For `Cc1n[nH]c2nc(-c3ccc(O)c(F)c3)cc(C(=O)N3CCC4(CC3)CNCCO4)c12` [Example 342, [6-(3-Fluoro-4-hydroxy-phenyl)-3-methyl-1H-pyrazolo[3,4-b]pyridin-4-yl]-(1-oxa-4,9-diaza-spiro[5.5]undec-9-yl)-methanone], the inhibition at 1.14 µM worked out at 60%.

In the case of `Cc1n[nH]c2nc(-c3ccc(O)cc3F)cc(C(=O)N3C[C@H](C)NC[C@@H]3C)c12` [Example 430, ((2S,5S)-2,5-Dimethyl-piperazin-1-yl)-[6-(2-fluoro-4-hydroxy-phenyl)-3-methyl-1H-pyrazolo[3,4-b]pyridin-4-yl]-methanone], the inhibition at 1.14 µM is 92%.

As for `Cc1n[nH]c2nc(-c3ccc(O)cc3)cc(C(=O)N3CCCNCC3)c12` [Example 75, [1,4]Diazepan-1-yl-[6-(4-hydroxy-phenyl)-3-methyl-1H-pyrazolo[3,4-b]pyridin-4-yl]-methanone], the inhibition at 1.14 µM was found to be 89%.

For `Cc1n[nH]c2nc(-c3ccc(O)cc3)cc(C(=O)N3C[C@]4(C)CN(C)C[C@](C)(C3)C4O)c12` (stereo partly drawn) [Example 274, [6-(4-Hydroxy-phenyl)-3-methyl-1H-pyrazolo[3,4-b]pyridin-4-yl]-((1S,5R)-9-hydroxy-1,5,7-trimethyl-3,7-diaza-bicyclo[3.3.1]non-3-yl)-methanone], the inhibition at 1.14 µM was 88%.

With `Cc1n[nH]c2nc(-c3ccc(O)c(F)c3)cc(C(=O)NCC(C)(CN3CCCC3)c3ccccn3)c12` (stereo not shown) [Example 371, 6-(3-Fluoro-4-hydroxy-phenyl)-3-methyl-1H-pyrazolo[3,4-b]pyridine-4-carboxylic acid (2-methyl-2-pyridin-2-yl-3-pyrrolidin-1-yl-propyl)-amide], the inhibition at 1.14 µM came to 31%.

As for `Cc1n[nH]c2nc(-c3ccc(O)cc3)cc(C(=O)N3CCOC4(CCNCC4)C3)c12` [Example 261, [6-(4-Hydroxy-phenyl)-3-methyl-1H-pyrazolo[3,4-b]pyridin-4-yl]-(1-oxa-4,9-diaza-spiro[5.5]undec-4-yl)-methanone], the inhibition at 1.14 µM came to 70%.

Turning to `Cc1n[nH]c2nc(-c3ccc(O)cc3)cc(C(=O)NCC(c3ccccc3)N3CCCC3)c12` (stereo not shown) [Example 391, 6-(4-Hydroxy-phenyl)-3-methyl-1H-pyrazolo[3,4-b]pyridine-4-carboxylic acid (2-phenyl-2-pyrroiidin-1-yl-ethyl)-amide], the inhibition at 1.14 µM is 84%.

For the molecule `Cc1cc(O)ccc1-c1cc(C(=O)N2CCN[C@@H](C)C2)c2c(C)n[nH]c2n1` [Example 145, [6-(4-Hydroxy-2-methyl-phenyl)-3-methyl-1H-pyrazolo[3,4-b]pyridin-4-yl]-((S)-3-methyl-piperazin-1-yl)-methanone], the inhibition at 1.14 µM amounted to 92%.

`Cc1n[nH]c2nc(-c3ccc(O)cc3)cc(C(=O)N3CCCC(N)C3)c12` (stereo not shown) [Example 76, (3-Amino-piperidin-1-yl)-[6-(4-hydroxy-phenyl)-3-methyl-1H-pyrazolo[3,4-b]pyridin-4-yl]-methanone]: the inhibition at 1.14 µM stood at 88%.

Turning to `Cc1n[nH]c2nc(-c3ccc(O)cc3)cc(C(=O)N3C[C@H]4CC[C@@H](C3)C4N)c12` (stereo partly shown) [Example 227, (8-Amino-3-aza-bicyclo[3.2.1]oct-3-yl)-[6-(4-hydroxy-phenyl)-3-methyl-1H-pyrazolo[3,4-b]pyridin-4-yl]-methanone], the inhibition at 1.14 µM amounted to 100%.

For `Cc1n[nH]c2nc(-c3ccc(O)cc3)cc(C(=O)NC3CC4CCCC(C3)N4C)c12` (stereo not shown) [Example 223, 6-(4-Hydroxy-phenyl)-3-methyl-1H-pyrazolo[3,4-b]pyridine-4-carboxylic acid (9-methyl-9-aza-bicyclo[3.3.1]non-3-yl)-amide], the inhibition at 1.14 µM amounted to 74%.

With `Cc1n[nH]c2nc(-c3ccc(O)c(F)c3)cc(C(=O)N[C@H]3C[C@H](N)C3)c12` [Example 309, 6-(3-Fluoro-4-hydroxy-phenyl)-3-methyl-1H-pyrazolo[3,4-b]pyridine-4-carboxylic acid (trans-3-amino-cyclobutyl)-amide], the inhibition at 1.14 µM came to 71%.

As to `Cc1n[nH]c2nc(-c3c(F)cc(O)cc3F)cc(C(=O)N3CCNCC3(C)C)c12` [Example 135, [6-(2,6-Difluoro-4-hydroxy-phenyl)-3-methyl-1H-pyrazolo[3,4-b]pyridin-4-yl]-(2,2-dimethyl-piperazin-1-yl)-methanone], the inhibition at 1.14 µM came to 96%.

On to `Cc1n[nH]c2nc(-c3ccc(O)cc3)cc(C(=O)N3CC(C)NCC3c3ccccc3)c12` (stereo not shown) [Example 70, [6-(4-Hydroxy-phenyl)-3-methyl-1H-pyrazolo[3,4-b]pyridin-4-yl]-(5-methyl-2-phenyl-piperazin-1-yl)-methanone], for which the inhibition at 1.14 µM is 92%.

Consider `Cc1n[nH]c2nc(-c3ccc(O)c(F)c3)cc(C(=O)N3CCNC(C)C3C)c12` (stereo not shown) [Example 352, (2,3-Dimethyl-piperazin-1-yl)-[6-(3-fluoro-4-hydroxy-phenyl)-3-methyl-1H-pyrazolo[3,4-b]pyridin-4-yl]-methanone], for which the inhibition at 1.14 µM turned out to be 84%.

As to `O=C(c1cc(-c2ccc(O)cc2)nc2[nH]nc(C(F)(F)F)c12)N1CC2(CCNCC2)C1` [Example 403, (2,7-Diaza-spiro[3.5]non-2-yl)-[6-(4-hydroxy-phenyl)-3-trifluoromethyl-1H-pyrazolo[3,4-b]pyridin-4-yl]-methanone], the inhibition at 1.14 µM was found to be 55%.

Regarding `CC1(C)CNCCN1C(=O)c1cc(-c2ccc(O)cc2)nc2[nH]nc(C3CC3)c12` [Example 157, [3-Cyclopropyl-6-(4-hydroxy-phenyl)-1H-pyrazolo[3,4-b]pyridin-4-yl]-(2,2-dimethyl-piperazin-1-yl)-methanone], the inhibition at 1.14 µM was determined as 91%.

`Cc1n[nH]c2nc(-c3ccc(O)cc3)cc(C(=O)N[C@@H]3CCCNC3)c12` [Example 222, 6-(4-Hydroxy-phenyl)-3-methyl-1H-pyrazolo[3,4-b]pyridine-4-carboxylic acid (R)-piperidin-3-ylamide]: the inhibition at 1.14 µM was 97%.

As to `Cc1cc(-c2cc(C(=O)N3CCNCC3)c3c(C)n[nH]c3n2)ccc1O` [Example 8, [6-(4-Hydroxy-3-methyl-phenyl)-3-methyl-1H-pyrazolo[3,4-b]pyridin-4-yl]-piperazin-1-yl-methanone], the inhibition at 1.14 µM turned out to be 32%.

In the case of `Cc1n[nH]c2nc(-c3ccc(O)cc3)cc(C(=O)N3CCN(C)CC3c3ccccc3)c12` (stereo not shown) [Example 372, [6-(4-Hydroxy-phenyl)-3-methyl-1H-pyrazolo[3,4-b]pyridin-4-yl]-(4-methyl-2-phenyl-piperazin-1-yl)-methanone], the inhibition at 1.14 µM is 66%.

On to `Cc1n[nH]c2nc(-c3ccc(O)cc3)cc(C(=O)NC34CNCC3C4)c12` (stereo in doubt) [Example 205, 6-(4-Hydroxy-phenyl)-3-methyl-1H-pyrazolo[3,4-b]pyridine-4-carboxylic acid [(R)-3-azabicyclo[3.1.0]hexan-1-yl]-amide], for which the inhibition at 1.14 µM is 92%.

In the case of `CCc1n[nH]c2nc(-c3ccc(O)cc3)cc(C(=O)N[C@@H]3CN4CCC3CC4)c12` [Example 162, (S)-3-Ethyl-6-(4-hydroxy-phenyl)-1H-pyrazolo[3,4-b]pyridine-4-carboxylic acid (1-aza-bicyclo[2.2.2]oct-3-yl)-amide], the inhibition at 1.14 µM was determined as 51%.

With `Cc1n[nH]c2nc(-c3ccc(O)cc3F)cc(C(=O)N3CCN[C@H](C)C3)c12` [Example 426, [6-(2-Fluoro-4-hydroxy-phenyl)-3-methyl-1H-pyrazolo[3,4-b]pyridin-4-yl]-((R)-3-methyl-piperazin-1-yl)-methanone], the inhibition at 1.14 µM is 87%.

Regarding `CNC1CCN(C(=O)c2cc(-c3ccc(O)cc3F)nc3[nH]nc(C)c23)CC1` [Example 58, [6-(2-Fluoro-4-hydroxy-phenyl)-3-methyl-1H-pyrazolo[3,4-b]pyridin-4-yl]-(4-methylamino-piperidin-1-yl)-methanone], the inhibition at 1.14 µM was determined as 93%.

Consider `Cc1n[nH]c2nc(-c3ccc(O)cc3)cc(C(=O)N3CCNCC3c3ccc(C(F)(F)F)cc3)c12` (stereo not shown) [Example 97, [6-(4-Hydroxy-phenyl)-3-methyl-1H-pyrazolo[3,4-b]pyridin-4-yl]-[2-(4-trifluoromethyl-phenyl)-piperazin-1-yl]-methanone], for which the inhibition at 1.14 µM was found to be 96%.

Regarding `CCC1(N)CCN(C(=O)c2cc(-c3ccc(O)cc3F)nc3[nH]nc(C)c23)CC1` [Example 416, (4-Amino-4-ethyl-piperidin-1-yl)-[6-(2-fluoro-4-hydroxy-phenyl)-3-methyl-1H-pyrazolo[3,4-b]pyridin-4-yl]-methanone], the inhibition at 1.14 µM stood at 84%.

In the case of `Cc1n[nH]c2nc(-c3ccc(O)cc3)cc(C(=O)NC(CCN)c3ccccc3)c12` (stereo not shown) [Example 131, 6-(4-Hydroxy-phenyl)-3-methyl-1H-pyrazolo[3,4-b]pyridine-4-carboxylic acid (3-amino-1-phenyl-propyl)-amide], the inhibition at 1.14 µM is 68%.

For `Cc1n[nH]c2nc(-c3ccc(O)cc3)cc(C(=O)NCCC3CCCN3C)c12` (stereo not shown) [Example 218, 6-(4-Hydroxy-phenyl)-3-methyl-1H-pyrazolo[3,4-b]pyridine-4-carboxylic acid [2-(1-methyl-pyrrolidin-2-yl)-ethyl]-amide], the inhibition at 1.14 µM was determined as 85%.

Turning to `Cc1n[nH]c2nc(-c3ccc(O)c(F)c3)cc(C(=O)N3CCN[C@@H](C)C3)c12` [Example 290, [6-(3-Fluoro-4-hydroxy-phenyl)-3-methyl-1H-pyrazolo[3,4-b]pyridin-4-yl]-((S)-3-methyl-piperazin-1-yl)-methanone], the inhibition at 1.14 µM turned out to be 96%.

`Cc1cc(O)ccc1-c1cc(C(=O)N2CCNCC2)c2c(C)n[nH]c2n1` [Example 13, [6-(4-Hydroxy-2-methyl-phenyl)-3-methyl-1H-pyrazolo[3,4-b]pyridin-4-yl]-piperazin-1-yl-methanone]: the inhibition at 1.14 µM was 96%.

The values are drawn from patent US8686150B2 (Sanofi, priority 2011, dated 2014).
